Experimental data as given in patent publication US8168596B2, “Use of cycloartane compounds for treating arthritis” (NuLiv Holding Inc., priority 2008, dated 2012).

Experiments:
MMP-2 = experiment: Zymography of MMP-2 from pre-treated SW1353 cells; type: cell-based, human; conditions: 24 h
Description: (§1) At the beginning of the experiment, the cells were pre-treated with 100 ng/mL PMA or 10 ng/mL IL-1β for 24 hours. The cells were then treated with 0.1 μM Dexamethasone, various astragaloside compounds (0.1 μM) or extracts of Astragalus membranaceous (1 μg/mL) at indicated dosages for another 24 hours. For control sample, 0.1% DMSO was used as a negative control for these experiments. The conditioned culture mediums were then centrifuged, 2-fold concentrated and collected for assay of collagens or MMPs secreted into the culture medium.
(§2) The proteolytic activities of MMPs from SW1353 cells were measured essentially as described previously (Circ Res, 1999; 85:906-911). The cells were lysed in lysis buffer (1% Triton X-100, 50 mM Tris-Cl, pH 7.4, 180 mM NaCl, 1 mM EDTA). The samples were measured for their protein concentration using the bicinchoninic acid (BCA) protein assay kit as described. Samples of concentrated conditioned medium and cell lysates were mixed with non-reducing electrophoresis loading buffer and subjected to electrophoresis under non-reducing conditions. The electrophoresis was carried out on a 10% SDS-PAGE co-polymerized with 2 mg/mL gelatin or casein (Sigma, St. Louis, Mo. USA). For zymographic analysis of pro-MMP-2 and activated MMP-2, the total 20 μg of culture medium were used for electrophoresis. Following electrophoresis, renaturation of the proteins was achieved by incubating the gels twice in 25 g/L Triton X-100 at room temperature for 10 min. Subsequently the gels were incubated in 50 mM Tris-HCl, pH 7.5 containing 0.2 M NaCl, 0.02% Brij35 and 10 mM CaCl2 at 37° C. for 18 hours. After the gels were stained with Coomassie Brilliant Blue R-250 and destained, zones of proteolytic activities became visible as transparent bands in the stained gel. In order to obtain higher sensitivity, the gels were further destained in a solution of 1% Triton X-100 (1 to 2 hours). This procedure increased the signal-to-noise ratio, allowing the visualization of faint gelatinase bands at 92 kDa, 125 kDa and greater than 200 kDa. Zymograms were read using a Molecular Dynamics (Sunnyvale, Calif., USA) computing laser densitometer with Image Quant software.

MMP-13 [1] = experiment: Western blot of MMP-13 in PMA- or IL-1β-pre-treated SW1353 cells (Example 6); type: cell-based, human; conditions: 0.1 μM, 48 h
Description: (§3) The cells were then plated on 6-cm dishes at a density of 1×10^6 cells/dish for 24 hours prior to any treatment. At the beginning of the experiment, the cells were pre-treated with 100 ng/mL PMA or 10 ng/mL IL-1β for 24 hours. The cells were then treated 0.1 μM Dexamethasone with, various astragaloside compounds (0.1 μM) or extracts of Astragalus membranaceous (1 μg/mL) at indicated dosages for another 48 hours. For control sample, 0.1% DMSO was used as a negative control for these experiments. The conditioned culture mediums were then centrifuged, 2-fold concentrated and collected for assay of collagens or MMPs secreted into the culture medium.
Western blotting analysis was carried out on both cultured medium and cell lysates, as follows. The cells were washed and lysed in 0.2 mL of lysis buffer (1% NP-40, 50 mM Tris-HCl, pH 7.4, 180 mM NaCl, 1 mM EDTA, 1 mM PMSF, 1 mM NaF, 10 mM Na3VO4) for 30 min at 4° C. After centrifuging at 17500 g for 15 min, the supernatants of cell lysate were also collected. Protein concentration of the samples were measured using the bicinchoninic acid (BCA) protein assay kit according to the manufacturer's protocol (Pierce, Rockford, Ill., USA). Equal amount of protein samples of concentrated conditioned medium (100 μg) or cell lysate supernatants (50 μg) were mixed with an appropriate volume of 4×SDS sampling buffer and separated by 8% SDS-PAGE gel. The protein bands separated in the SDS-PAGE gel were blotted onto a polyvinylidene fluoride (PVDF) membrane. The blotted PVDF membrane was washed twice and blocked in freshly prepared Tris-buffered saline (TBS) containing 0.1% Tween-20 and 7% skim milk (TBST) for 2 hours at room temperature. […] Horseradish peroxidase-conjugated anti-goat antibody was used as secondary antibody. Signals were visualized by an enhanced chemiluminescence kit (Clonetech, Palo Alto, Calif., USA) followed by exposure to X-ray films.

MMP-1 [2] = experiment: Western blot of MMP-1 in PMA- or IL-1β-pre-treated SW1353 cells (Example 6); type: cell-based, human; conditions: 48 h
Description: as §3
Western blotting analysis was carried out on both cultured medium and cell lysates, as follows. The cells were washed and lysed in 0.2 mL of lysis buffer (1% NP-40, 50 mM Tris-HCl, pH 7.4, 180 mM NaCl, 1 mM EDTA, 1 mM PMSF, 1 mM NaF, 10 mM Na3VO4) for 30 min at 4° C. After centrifuging at 17500 g for 15 min, the supernatants of cell lysate were also collected. Protein concentration of the samples were measured using the bicinchoninic acid (BCA) protein assay kit according to the manufacturer's protocol (Pierce, Rockford, Ill., USA). Equal amount of protein samples of concentrated conditioned medium (100 μg) or cell lysate supernatants (50 μg) were mixed with an appropriate volume of 4×SDS sampling buffer and separated by 8% SDS-PAGE gel. The protein bands separated in the SDS-PAGE gel were blotted onto a polyvinylidene fluoride (PVDF) membrane. The blotted PVDF membrane was washed twice and blocked in freshly prepared Tris-buffered saline (TBS) containing 0.1% Tween-20 and 7% skim milk (TBST) for 2 hours at room temperature. The PVDF membrane was then incubated with either antibodies against collagen I and III or the housekeeping protein α-tubulin (Santa Cruz Biotechnology, Santa Cruz, Calif.) for 18 hours at 4° C. Horseradish peroxidase-conjugated anti-goat antibody was used as secondary antibody. Signals were visualized by an enhanced chemiluminescence kit (Clonetech, Palo Alto, Calif., USA) followed by exposure to X-ray films.

MMP-9 = experiment: Zymography of MMP-9 from pre-treated SW1353 cells; type: cell-based, human; conditions: 24 h
Description: as §1, §2

MMP-1 [3] = experiment: Zymography of MMP-1 from pre-treated SW1353 cells; type: cell-based, human; conditions: 0.1 μM, 24 h
Description: as §1, §2

MMP-13 [4] = experiment: Western blot of MMP-13 in pre-treated human chondrocytes (HCHs); type: cell-based; conditions: 48 h
Type II Collagen = experiment: Western blot of Type II Collagen in pre-treated human chondrocytes (HCHs); type: cell-based; conditions: 48 h
HCH cells = experiment: Proline uptake assay; type: cell-based, human; conditions: astragalosides 0.1 μM, 24 h, Ctrl 1.00
Description: The proline uptake assay was carried out as described below, generally in accordance with the method disclosed in Biochim Biophys Acta. 1104:283-292, 1992, the contents of which are incorporated by reference. Briefly, HCH cells were seeded into a 24-well plate at a density of 3×10^4 cells per well and cultured for 24 hours. The cells were then treated in the absence (solvent control) or presence of the astragalosides (0.1 μM) or Astragalus membranaceous extracts (1.0 μg/mL) for another 24 hours. The treated cells were then washed once with PBS and incubated in amino acid free medium (AAFM) for another 30 min. The treated cells were then replaced with fresh AAFM containing 50 μg/mL of ascorbate and total of 0.5 mM of L-proline containing 1 μCi [^3H] Proline (American Radiolabelled Chemicals Inc, ARC, St. Louis, Mo., USA). At designated time intervals, the cells were washed with AAFM containing cold proline and then lysed in 200 μL of 2% SDS. Cell lysates were centrifuged at 15000 g for 15 min. Intracellular proline uptaken by the cells was determined by transferring 10 μL of the cell lysate to filter-bottomed UniFilter plates (Perkim-Elmer) and counting. The samples were measured for their protein concentrations using the BCA protein assay kit as described above. The amount of proline accumulated in the cells was calculated and normalized to protein concentration. And cellular uptake rate was expressed as nmole of L-proline per minute per […] of cell protein (nmole/min/μg).

MMP-1 [5] = experiment: Western blot of MMP-1 in pre-treated human chondrocytes (HCHs); type: cell-based; conditions: 48 h
[6] = IL-1β-pre-treated SW1353, compounds 0.1 μM
[7] = IL-1β-pre-treated SW1353 cell extract
[8] = IL-1β-pre-treated SW1353 culture medium
[9] = IL-1β-pre-treated SW1353 cell extract, compounds 0.1 μM
[10] = PMA-pre-treated SW1353 cell extract, 0.1 μM
[11] = IL-1β-pre-treated HCH culture medium, compounds 0.1 μM
[12] = IL-1β-pre-treated SW1353 culture medium, 0.1 μM
[13] = PMA-pre-treated SW1353 culture medium
[14] = PMA-pre-treated HCH culture medium, 0.1 μM
[15] = PMA-pre-treated SW1353 culture medium, 0.1 μM

Molecule | MMP-2, Zymography, relative to Ctrl 1.00 (MMP-2; [6]) | MMP-13, Western blot, relative to Ctrl 1.00 (MMP-13 [1]; [7]) | MMP-13, Western blot, relative to Ctrl 1.00 (MMP-13 [1]; [8]) | MMP-1, Western blot, relative to Ctrl 1.00 (MMP-1 [2]; [9]) | MMP-1, Western blot, relative to Ctrl 1.00 (MMP-1 [2]; [10]) | MMP-9, Zymography, relative to Ctrl 1.00 (MMP-9; [6]) | MMP-1, Zymography, relative to Ctrl 1.00 (MMP-1 [3]; IL-1β-pre-treated SW1353) | MMP-2, Zymography, relative to Ctrl 1.00 (MMP-2; PMA-pre-treated SW1353, 0.1 μM) | MMP-13, Western blot, relative to Ctrl 1.00 (MMP-13 [4]; [11]) | Type II Collagen, Western blot, relative to Ctrl 1.00 (Type II Collagen; [11]) | MMP-1, Western blot, relative to Ctrl 1.00 (MMP-1 [2]; [12]) | MMP-9, Zymography, relative to Ctrl 1.00 (MMP-9; PMA-pre-treated SW1353, 0.1 μM) | MMP-1, Zymography, relative to Ctrl 1.00 (MMP-1 [3]; PMA-pre-treated SW1353) | MMP-13, Western blot, relative to Ctrl 1.00 (MMP-13 [1]; [13]) | MMP-1, Western blot, relative to Ctrl 1.00 (MMP-1 [5]; [11]) | MMP-1, Western blot, relative to Ctrl 1.00 (MMP-1 [5]; [14]) | MMP-13, Western blot, relative to Ctrl 1.00 (MMP-13 [4]; [14]) | Type II Collagen, Western blot, relative to Ctrl 1.00 (Type II Collagen; [14]) | MMP-1, Western blot, relative to Ctrl 1.00 (MMP-1 [2]; [15]) | further results
CC(=O)O[C@H]1[C@H](O[C@H]2CC[C@]34C[C@]35CC[C@]3(C)[C@@H]([C@@]6(C)CC[C@@H](C(C)(C)O)O6)[C@@H](O)C[C@@]3(C)[C@@H]5C[C@H](O[C@@H]3O[C@H](CO)[C@@H](O)[C@H](O)[C@H]3O)[C@H]4C2(C)C)OC[C@@H](O)[C@@H]1O [AS2, Astragaloside II] | 0.79 | 0.49 | 0.45 | 0.86 | 0.71 | 0.79 | 0.77 |  |  |  |  |  |  |  |  |  |  |  |  | 
CC(C)(O)[C@@H]1CC[C@](C)([C@H]2[C@@H](O)C[C@@]3(C)[C@@H]4C[C@H](O)[C@H]5C(C)(C)[C@@H](O[C@@H]6OC[C@@H](O)[C@H](O)[C@H]6O[C@@H]6O[C@H](CO)[C@@H](O)[C@H](O)[C@H]6O)CC[C@@]56C[C@@]46CC[C@]23C)O1 [AS3, Astragaloside III] |  | 0.86 |  | 0.39 |  |  |  | 0.90 | 0.75 | 1.03 | 0.09 | 0.87 | 0.89 |  |  |  |  |  |  | 
CC(C)(O)[C@@H]1CC[C@](C)([C@H]2[C@@H](O)C[C@@]3(C)[C@@H]4C[C@H](O[C@@H]5O[C@H](CO)[C@@H](O)[C@H](O)[C@H]5O)[C@H]5C(C)(C)[C@@H](O[C@@H]6OC[C@@H](O)[C@H](O)[C@H]6O[C@@H]6O[C@H](CO)[C@@H](O)[C@H](O)[C@H]6O)CC[C@@]56C[C@@]46CC[C@]23C)O1 [AS6, Astragaloside VI] |  |  |  | 0.63 |  |  |  |  |  | 1.34 |  |  |  | 0.93 | 0.97 | 0.51 | 0.26 | 1.74 | 0.40 | proline uptake, Relative fold (HCH cells): 1.69 fold; MMP-13, Western blot, relative to Ctrl 1.00 (MMP-13 [4]; PMA-pre-treated HCH cell extract, 0.1 μM): 0.54
C[C@@H]1C[C@H]2[C@@H]3CCC4=CC(=O)C=C[C@]4(C)[C@@]3(F)[C@@H](O)C[C@]2(C)[C@@]1(O)C(=O)CO [Dex, Dexamethasone, reference compound] | 0.42 | 0.64 | 0.29 | 0.26 | 0.38 | 0.58 | 0.80 | 0.99 | 0.74 | 1.20 | 0.38 | 0.92 | 0.87 | 0.46 | 0.28 | 0.28 | 0.74 | 1.20 | 0.60 | MMP-13, Western blot, relative to Ctrl 1.00 (MMP-13 [1]; PMA-pre-treated SW1353 cell extract): 0.48
Astragaloside I [AS1] | 0.76 | 0.37 |  | 0.66 | 0.86 | 0.79 | 0.86 | 0.87 |  |  |  | 1.23 | 0.85 | 1.15 |  |  |  |  | 0.48 | 
